According to patent US20090226393A1 (NITTO DENKO CORPORATION, priority 2008, published 2009):

Key:
[1] = female, nu/nu, mouse, in vivo, iv, 40 mg/kg
[2] = Biodistribution in different organs (drug accumulation study); settings: 48 hours post administration
Experimental: Plasma, tumor and samples of the major organ were collected at intervals out to 340 hours. […] Pharmacokinetic parameters were estimated using WinNonlin software using a non-compartment model.
For each drug, groups of 6 mice were anesthetized at various time points and 0.3 ml of blood, obtained by cardiac puncture, was collected into heparinized tubes. Thereafter, mice were sacrificed before recovering from anesthesia and the following tissues were harvested and frozen from each animal: each of the 4 tumors, lung, liver, spleen, both kidneys, skeletal muscle and heart. […] For each drug a total 72 mice were required (6 mice/time point, 12 time points).

[3] = mouse, in vivo
[4] = tested on: NCI-H460 non-small cell lung cancer xenograft; settings: 550 mg/kg paclitaxel equivalent, IV, q7dx2, compared to Abraxane
Text: Dosage amounts may be adjusted based on the maximum tolerated dose (MTD) of the pharmaceutical composition.

Compound	T1/2 Terminal [1]	amount retained in kidney [2]	amount retained in liver [2]	amount retained in lung [2]	amount retained in spleen [2]	detected in the feces [3]	tumor volume compared to Abraxane (B16 melanoma)	% TGD (tumor growth delay) [4]
CC(=O)O[C@H]1C(=O)[C@@]2(C)[C@H]([C@H](OC(=O)c3ccccc3)[C@]3(O)C[C@H](OC(=O)[C@H](O)[C@@H](NC(=O)c4ccccc4)c4ccccc4)C(C)=C1C3(C)C)[C@]1(OC(C)=O)CO[C@@H]1C[C@@H]2O [PTX, Paclitaxel]	51 h	less than 2 μg/g	less than 2 μg/g	less than 2 μg/g	less than 2 μg/g	approximately 72%		
poly-(gamma-L-glutamyl glutamine)-paclitaxel [PGGA70K-PTX35]							significantly reduced tumor volume	136%
